A short description of data set [1]: Physicochemical properties of the crystalline compound. As to conditions: crystalline powder.
The conditions of data set [2]: previous rat experiments; Batzl-Hartmann 1994, Bhatnagar 1996; cited from earlier work.
The nature of data set [3]: Toxicologic studies in female and male dogs, weekly oral dosing. It counts as in vivo, dog. From the text:
Generally, the inter-animal variability in Cmax levels was small.

Data set [4] relates to estrone, estrone sulfate and estradiol. As to the kind of experiment: Single ascending dose study in women, pharmacodynamics (estrogen suppression). It counts as in vivo, human. Here is the method:
Patients received either 0.1 mg, 1 mg, and 10 mg drug substance containing hard gelatin capsules or appropriate matching placebo capsules.
A minimal toxic dose (MTD) was not reached. […] Table 3 presents the PK parameters based on preliminary analysis of the concentration-time profile obtained from this study.

The target of a further data set is T1, aromatase (Rattus norvegicus, UniProt P22443).
T1 construct: host or cells: adult female rats (whole animal, endogenous enzyme)
T1 sequence (P22443 1-508): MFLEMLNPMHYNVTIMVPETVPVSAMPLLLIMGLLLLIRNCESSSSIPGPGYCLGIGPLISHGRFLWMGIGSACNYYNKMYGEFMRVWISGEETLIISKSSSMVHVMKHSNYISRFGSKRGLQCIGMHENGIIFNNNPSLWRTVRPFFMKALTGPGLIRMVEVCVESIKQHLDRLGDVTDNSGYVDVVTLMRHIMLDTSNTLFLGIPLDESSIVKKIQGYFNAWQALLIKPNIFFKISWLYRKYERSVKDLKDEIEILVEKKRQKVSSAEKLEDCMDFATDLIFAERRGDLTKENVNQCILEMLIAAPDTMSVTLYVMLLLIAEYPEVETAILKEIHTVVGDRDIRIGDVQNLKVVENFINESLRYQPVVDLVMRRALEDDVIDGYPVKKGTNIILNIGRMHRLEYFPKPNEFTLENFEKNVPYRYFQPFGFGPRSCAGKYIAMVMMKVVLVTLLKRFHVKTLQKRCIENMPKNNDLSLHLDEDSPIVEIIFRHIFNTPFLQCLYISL
As to conditions: once weekly administration, adult female rats; Batzl-Hartmann et al, 1994; cited from earlier work.

The nature of data set [5]: Human ADME study, single oral dose of 1 mg 14C-CGP47645 in healthy postmenopausal women. The class given is in vivo. From the text:
The study was a single dose, single group, open label ADME study of 8 healthy postmenopausal women. […] The study design consisted of a 28-day screening period, one baseline visit (Day −1), a domiciled period beginning from admission on Day −1 through discharge on Day 7, 2 outpatient visits for PK blood collection on Days 14 (±1) and 21 (±1), 2 subject specific adipose tissue collection visits, and an end-of-study 6 month safety follow-up visit.
The primary goal of this study was to assess the partitioning of CGP47645 into abdominal adipose tissue as a measure of peripheral tissue targeting and to assess whether there may be a longer T½ metabolite, as well as to elucidate the metabolic profile, obtain information on routes of excretion and mass balance. Adipose tissue samples were collected in a sparse sampling protocol, where each subject underwent two collections of adipose tissue, with each subject biopsied at different times.

Where two headings read alike, the source gives them in different places. Some results are limits rather than exact numbers.

As for `N#Cc1ccc(C(F)(c2ccc(C#N)cc2)n2cncn2)cc1` [CGP47645, 4,4′-[fluoro-(1-H-1,2,4-triazol-1-yl)methylene]bisbenzonitrile], in data set [1], the hygroscopicity result was “not hygroscopic”. In addition, the half-life entry in data set [2] is “about a week”. Also, the Tmax in data set [3] (both sexes, dog, plasma, oral, dogs, post dose) is 0.0417 to 1 days. In addition, the “difference in exposure (AUC and Cmax) between male and female dogs” value in data set [3] (dogs) is “no consistent difference”. Besides, the drug accumulation entry in data set [3] (dogs, weekly oral dosing for 4 or 22 weeks versus single dose) is “no drug accumulation”. In data set [3] (male and female dogs, single and multiple doses), the “increase in exposure (AUC and Cmax) versus dose” value is “generally proportional to the dose increase”. Also, in data set [3] (male dogs after 1, 4 and 12 weeks of dosing), the serum testosterone levels result is recorded as “dramatically elevated testosterone levels at all dose levels”. The “estrone suppression compared with letrozole” value in data set [4] (postmenopausal women, doses of 0.1 mg and 0.3 mg, letrozole 2.5 mg) is “at least equal to letrozole”. Further, in data set [4] (single doses, women), the “inhibition of estrone, estrone sulfate and estradiol” value is reported as “dose-dependent inhibition”. The “effective dose achieving medical castration” value at aromatase is on record as 3 mg/kg. Also, the metabolites in plasma result in data set [5] (LSC and LC-MS) is “No metabolites were detected in plasma”. Also, in data set [5] (female, human, abdominal adipose tissue, oral, 1 mg, postmenopausal women, read-out: accumulation in fat tissue in comparison to exposure in plasma), the Kp is 1 to 3. The half-life in data set [5] (female, human, single oral 1 mg, plasma, parent drug, read-out: terminal elimination half-life (converted)) is roughly 28 days. Moreover, in data set [5] (single oral 1 mg 14C-CGP47645), the safety and tolerability entry is “safe and well tolerated”; the “share of renally eliminated radioactivity recovered as unchanged drug” value is listed as 16%; the “share of total radioactivity excreted after 6 days that was renally eliminated” value is listed as “Approximately 84%”. The absorption result in data set [5] (single oral 1 mg, healthy postmenopausal women) was “fast and almost complete absorption”. For the same compound, the “duration of persistent plasma concentrations post-dose” value in data set [5] (single oral 1 mg, terminal phase) was greater than 4000 h. Moreover, the “main metabolites identified in urine” value in data set [5] (three main metabolites) was “a carbinol derivative and two glucuronides”.
